Experimental data from patent US5545547A, “Enzymes as agricultural chemical adjuvants” (priority 1992, dated 1996).

Assays:
Type in all cases: in vivo
various plants = assay: Greenhouse multispecies herbicide screen, statements on all tested plants
Source text: (§1) Several plant species including weeds and crops are used in these experiments.
A number of herbicides from various chemical classes were compared in a multispecies screen for percent chlorosis, necrosis and vigor reduction both with and without application of the enzyme from Pseudomonas mendocina ATCC 53552 described earlier. The herbicides were applied to various plants at the manufacturers recommended doses and at 10% and 40% of the recommended dose. Two different enzyme concentrations were used: 0.5 mg/ml (HE) and 0.05 mg/ml (LE) and applied at the rate of 40 gallons/acre. All spraying solutions were at pH 10 and contained 100 mm sodium phosphate each. […] All the experiments were carried out in a greenhouse.

Soybeans = assay: Greenhouse multispecies herbicide screen with/without P. mendocina enzyme; conditions: two weeks after treatment
Source text: as §1
(§2) A number of herbicides from various chemical classes were compared in a multispecies screen for percent chlorosis, necrosis and vigor reduction both with and without application of the enzyme from Pseudomonas mendocina ATCC 53552 described earlier. The herbicides were applied to various plants at the manufacturers recommended doses and at 10% and 40% of the recommended dose. Two different enzyme concentrations were used: 0.5 mg/ml (HE) and 0.05 mg/ml (LE) and applied at the rate of 40 gallons/acre. All spraying solutions were at pH 10 and contained 100 mm sodium phosphate each. Ratings were done at 6 and 12 days after the treatment. All the experiments were carried out in a greenhouse.
(§3) Chlorosis--figures represent percent of plants showing chlorosis.
(§4) Necrosis--figures represent percent of plants showing necrosis.
(§5) Vigor--figures represent percent of plants showing decreased vigor.
(§6) Phytotoxicity--figures represent the average percent of chlorosis, necrosis, and vigor for a given sample.
(§7) The method of Example 1 was used except that the enzyme was applied 2 hours prior to administering the agricultural chemical with the following results. Ratings were done two weeks after treatment

Turnip = assay: as above; conditions: for CHL (chlorosis) / NEC (necrosis) / PHY (phytotoxicity) / VIG (vigor) / % PHY (phytotoxicity): two weeks after treatment
Source text: as §1, §2, §3, §4, §5, §6, §7

[1] = Example 8: BASAGRAN 10% dose, High Enzyme applied 2 hours prior
[2] = Example 8: BASAGRAN 10% dose, Low Enzyme applied 2 hours prior
[3] = Example 8: BASAGRAN 10% dose, No Enzyme

What does the source list for `CC(C)N1C(=O)c2ccccc2NS1(=O)=O` [BASAGRAN, 3-(1-methylethyl)-1H-,2,1,3-benzothiadiazin-4(3H)-one 2,2-dioxide]?
Plants killed (various plants; BASAGRAN applied at 40% of the recommended dosage, two weeks after treatment): completely killed; CHL (chlorosis) (Soybeans; BASAGRAN 10% dose, High Enzyme): 18%; NEC (necrosis) (Soybeans; BASAGRAN 10% dose, High Enzyme): 38%; PHY (phytotoxicity) (Soybeans; BASAGRAN 10% dose, High Enzyme): 43%; VIG (vigor) (Soybeans; BASAGRAN 10% dose, High Enzyme): 73%; CHL (chlorosis) (Soybeans; BASAGRAN 10% dose, Low Enzyme): 18%; NEC (necrosis) (Soybeans; BASAGRAN 10% dose, Low Enzyme): 43%; PHY (phytotoxicity) (Soybeans; BASAGRAN 10% dose, Low Enzyme): 37%; VIG (vigor) (Soybeans; BASAGRAN 10% dose, Low Enzyme): 50%; CHL (chlorosis) (Soybeans; BASAGRAN 10% dose, No Enzyme): 5%; NEC (necrosis) (Soybeans; BASAGRAN 10% dose, No Enzyme): 5%; PHY (phytotoxicity) (Soybeans; BASAGRAN 10% dose, No Enzyme): 8%; VIG (vigor) (Soybeans; BASAGRAN 10% dose, No Enzyme): 13%; % PHY (phytotoxicity) (Soybeans; [1]): 2%; CHL (chlorosis) (Soybeans; [1]): 0%; NEC (necrosis) (Soybeans; [1]): 5%; VIG (vigor) (Soybeans; [1]): 0%; % PHY (phytotoxicity) (Soybeans; [2]): 48%; CHL (chlorosis) (Soybeans; [2]): 48%; NEC (necrosis) (Soybeans; [2]): 48%; VIG (vigor) (Soybeans; [2]): 48%; % PHY (phytotoxicity) (Soybeans; [3]): 25%; CHL (chlorosis) (Soybeans; [3]): 25%; NEC (necrosis) (Soybeans; [3]): 25%; VIG (vigor) (Soybeans; [3]): 25%; CHL (chlorosis) (Turnip; BASAGRAN 10% dose, High Enzyme): 38%; NEC (necrosis) (Turnip; BASAGRAN 10% dose, High Enzyme): 50%; PHY (phytotoxicity) (Turnip; BASAGRAN 10% dose, High Enzyme): 50%; VIG (vigor) (Turnip; BASAGRAN 10% dose, High Enzyme): 63%; CHL (chlorosis) (Turnip; BASAGRAN 10% dose, Low Enzyme): 38%; NEC (necrosis) (Turnip; BASAGRAN 10% dose, Low Enzyme): 63%; PHY (phytotoxicity) (Turnip; BASAGRAN 10% dose, Low Enzyme): 59%; VIG (vigor) (Turnip; BASAGRAN 10% dose, Low Enzyme): 75%; CHL (chlorosis) (Turnip; BASAGRAN 10% dose, No Enzyme): 25%; NEC (necrosis) (Turnip; BASAGRAN 10% dose, No Enzyme): 25%; PHY (phytotoxicity) (Turnip; BASAGRAN 10% dose, No Enzyme): 29%; VIG (vigor) (Turnip; BASAGRAN 10% dose, No Enzyme): 38%; % PHY (phytotoxicity) (Turnip; [1]): 41%; CHL (chlorosis) (Turnip; [1]): 30%; NEC (necrosis) (Turnip; [1]): 50%; VIG (vigor) (Turnip; [1]): 43%; % PHY (phytotoxicity) (Turnip; [2]): 78%; CHL (chlorosis) (Turnip; [2]): 63%; NEC (necrosis) (Turnip; [2]): 85%; VIG (vigor) (Turnip; [2]): 85%; % PHY (phytotoxicity) (Turnip; [3]): 48%; CHL (chlorosis) (Turnip; [3]): 25%; NEC (necrosis) (Turnip; [3]): 63%; VIG (vigor) (Turnip; [3]): 55%

`CN(C)C(=O)Nc1ccc(Cl)c(Cl)c1` [KARMEX, 3-(3,4-dichlorophenyl)-1,1-dimethylurea] was tested. Which Phytotoxicity (various plants; KARMEX under the test conditions) did it give?
Its Phytotoxicity is “low”.

And the “CHL (chlorosis)” value (Soybeans; KARMEX 10% dose, High Enzyme)?
Its value is 0%.

And the “NEC (necrosis)” value (Soybeans; KARMEX 10% dose, High Enzyme)?
Its value is 0%.

And the “PHY (phytotoxicity)” value (Soybeans; KARMEX 10% dose, High Enzyme)?
The value was 0%.

And the “VIG (vigor)” value (Soybeans; KARMEX 10% dose, High Enzyme)?
Its value is 0%.

What about the “CHL (chlorosis)” value (Soybeans; KARMEX 10% dose, Low Enzyme) of the same molecule?
Its value is 0%.

What about the “NEC (necrosis)” value (Soybeans; KARMEX 10% dose, Low Enzyme) of the same molecule?
Its value is 0%.

What about the “PHY (phytotoxicity)” value (Soybeans; KARMEX 10% dose, Low Enzyme) of the same molecule?
Its value is 0%.

What about the “VIG (vigor)” value (Soybeans; KARMEX 10% dose, Low Enzyme) of the same molecule?
The value was 0%.

And the “CHL (chlorosis)” value (Soybeans; KARMEX 10% dose, No Enzyme)?
Its value is 0%.

And the “NEC (necrosis)” value (Soybeans; KARMEX 10% dose, No Enzyme)?
The value was 0%.

What about the “PHY (phytotoxicity)” value (Soybeans; KARMEX 10% dose, No Enzyme) of the same molecule?
The value was 0%.

What about the “VIG (vigor)” value (Soybeans; KARMEX 10% dose, No Enzyme) of the same molecule?
The value was 0%.

What about the “CHL (chlorosis)” value (Soybeans; KARMEX 40% dose, High Enzyme) of the same molecule?
The value was 0%.

What about the “NEC (necrosis)” value (Soybeans; KARMEX 40% dose, High Enzyme) of the same molecule?
Its value is 13%.

What about the “PHY (phytotoxicity)” value (Soybeans; KARMEX 40% dose, High Enzyme) of the same molecule?
The value was 8%.

What about the “VIG (vigor)” value (Soybeans; KARMEX 40% dose, High Enzyme) of the same molecule?
The value was 10%.

And the “CHL (chlorosis)” value (Soybeans; KARMEX 40% dose, Low Enzyme)?
Its value is 0%.

And the “NEC (necrosis)” value (Soybeans; KARMEX 40% dose, Low Enzyme)?
The value was 15%.

What about the “PHY (phytotoxicity)” value (Soybeans; KARMEX 40% dose, Low Enzyme) of the same molecule?
The value was 6%.

And the “VIG (vigor)” value (Soybeans; KARMEX 40% dose, Low Enzyme)?
Its value is 5%.

And the “CHL (chlorosis)” value (Soybeans; KARMEX 40% dose, No Enzyme)?
Its value is 0%.

And the “NEC (necrosis)” value (Soybeans; KARMEX 40% dose, No Enzyme)?
Its value is 10%.

What about the “PHY (phytotoxicity)” value (Soybeans; KARMEX 40% dose, No Enzyme) of the same molecule?
The value was 3%.

And the “VIG (vigor)” value (Soybeans; KARMEX 40% dose, No Enzyme)?
Its value is 0%.

What about the “CHL (chlorosis)” value (Turnip; KARMEX 10% dose, High Enzyme) of the same molecule?
Its value is 18%.

And the “NEC (necrosis)” value (Turnip; KARMEX 10% dose, High Enzyme)?
The value was 15%.

What about the “PHY (phytotoxicity)” value (Turnip; KARMEX 10% dose, High Enzyme) of the same molecule?
Its value is 11%.

And the “VIG (vigor)” value (Turnip; KARMEX 10% dose, High Enzyme)?
The value was 0%.

What about the “CHL (chlorosis)” value (Turnip; KARMEX 10% dose, Low Enzyme) of the same molecule?
Its value is 18%.

And the “NEC (necrosis)” value (Turnip; KARMEX 10% dose, Low Enzyme)?
The value was 15%.

What about the “PHY (phytotoxicity)” value (Turnip; KARMEX 10% dose, Low Enzyme) of the same molecule?
The value was 11%.

And the “VIG (vigor)” value (Turnip; KARMEX 10% dose, Low Enzyme)?
Its value is 5%.

And the “CHL (chlorosis)” value (Turnip; KARMEX 10% dose, No Enzyme)?
Its value is 28%.

What about the “NEC (necrosis)” value (Turnip; KARMEX 10% dose, No Enzyme) of the same molecule?
Its value is 10%.

What about the “PHY (phytotoxicity)” value (Turnip; KARMEX 10% dose, No Enzyme) of the same molecule?
Its value is 13%.

And the “VIG (vigor)” value (Turnip; KARMEX 10% dose, No Enzyme)?
Its value is 0%.

And the “CHL (chlorosis)” value (Turnip; KARMEX 40% dose, High Enzyme)?
The value was 35%.

And the “NEC (necrosis)” value (Turnip; KARMEX 40% dose, High Enzyme)?
Its value is 25%.

What about the “PHY (phytotoxicity)” value (Turnip; KARMEX 40% dose, High Enzyme) of the same molecule?
The value was 36%.

What about the “VIG (vigor)” value (Turnip; KARMEX 40% dose, High Enzyme) of the same molecule?
Its value is 50%.

What about the “CHL (chlorosis)” value (Turnip; KARMEX 40% dose, Low Enzyme) of the same molecule?
The value was 30%.

And the “NEC (necrosis)” value (Turnip; KARMEX 40% dose, Low Enzyme)?
Its value is 50%.

And the “PHY (phytotoxicity)” value (Turnip; KARMEX 40% dose, Low Enzyme)?
The value was 41%.

And the “VIG (vigor)” value (Turnip; KARMEX 40% dose, Low Enzyme)?
Its value is 43%.

And the “CHL (chlorosis)” value (Turnip; KARMEX 40% dose, No Enzyme)?
The value was 25%.

And the “NEC (necrosis)” value (Turnip; KARMEX 40% dose, No Enzyme)?
The value was 38%.

What about the “PHY (phytotoxicity)” value (Turnip; KARMEX 40% dose, No Enzyme) of the same molecule?
The value was 33%.

And the “VIG (vigor)” value (Turnip; KARMEX 40% dose, No Enzyme)?
The value was 37%.

And the Phytotoxicity with enzyme (Turnip; KARMEX at 40% of the recommended dosage, with enzyme, sprayed on turnips)?
The Phytotoxicity with enzyme was “increased phytotoxicity”.
